According to patent US20220288213A1, “INSULIN ANALOGUES WITH GLUCOSE REGULATED CONFORMATIONAL SWITCH” (Thermalin Inc., priority 2019, published 2022):

Columns and labels:
[1] = Alizarin Red S (ARS) competitive assay, glucose as competitor; format: binding
Procedure: Stock solutions of test compounds, competitor (polyols, i.e., fructose and glucose), and Alizarin Red S (ARS) were dissolved in 0.1 mM Sodium Phosphate, pH 7.4. In a 96-well plate, stock solutions were combined to final concentrations of 20 μm ARS, 0.1 mM test compound, and varying competitor concentrations (0, 5, 10, 15, and/or 25 mM). Final solution (75 μL) was added to each plate well. Fluorescence data was acquired on Molecular Devices SpectraMax M2 with excitation at 456 nm and emission at 600 nm. In this assay, the selectivity of synthesized constructs for glucose was determined using the ARS competitive assay. Test articles were incubated with ARS and competitors (i.e. glucose and fructose) were added at varying concentrations. ARS fluorescence increases when the molecule interacts with boronic acids. The fluorescence was measured after the addition of the competitor. A decrease in fluorescence indicates the displacement of the ARS molecule by the sensor. All data were normalized to the fluorescence of an untreated solution (ARS bound to the sensing unit). […] This was not observed when FPBA was incubated with glucose. […] These are peptides modified to include glucose sensors at the lysyl residue. DA-Z4 is an L-diaminopropionic acid modified to include two benzoxoxaboroles. DA-Z16 is an D-diaminobutyric acid modified to include two benzoxaboroles. […]

[2] = Alizarin Red S (ARS) competitive assay, fructose as competitor; format: binding; settings: 20 μm ARS, 0.1 mM test compound, competitor 0-25 mM, pH 7.4; a decrease means ARS is displaced
Procedure: Stock solutions of test compounds, competitor (polyols, i.e., fructose and glucose), and Alizarin Red S (ARS) were dissolved in 0.1 mM Sodium Phosphate, pH 7.4. In a 96-well plate, stock solutions were combined to final concentrations of 20 μm ARS, 0.1 mM test compound, and varying competitor concentrations (0, 5, 10, 15, and/or 25 mM). Final solution (75 μL) was added to each plate well. Fluorescence data was acquired on Molecular Devices SpectraMax M2 with excitation at 456 nm and emission at 600 nm.
In this assay, the selectivity of synthesized constructs for glucose was determined using the ARS competitive assay. Test articles were incubated with ARS and competitors (i.e. glucose and fructose) were added at varying concentrations. ARS fluorescence increases when the molecule interacts with boronic acids. The fluorescence was measured after the addition of the competitor. A decrease in fluorescence indicates the displacement of the ARS molecule by the sensor. All data were normalized to the fluorescence of an untreated solution (ARS bound to the sensing unit). […] This was not observed when FPBA was incubated with glucose. […] These are peptides modified to include glucose sensors at the lysyl residue. DA-Z4 is an L-diaminopropionic acid modified to include two benzoxoxaboroles. DA-Z16 is an D-diaminobutyric acid modified to include two benzoxaboroles. […]

Row | binding to glucose compared to monoboronic acids such as FPBA and FPBA KB28 PB29 ([1]; ARS data) | Compound | ARS fluorescence signal decrease when incubated with glucose ([1]; 20 μm ARS, 0.1 mM test compound, competitor 0-25 mM, pH 7.4) | ARS fluorescence signal when treated with fructose [2]
1 | stronger binding to glucose | O=C(NC[C@H](NC(=O)c1ccc2c(c1)B(O)OC2)C(=O)O)c1ccc2c(c1)B(O)OC2 [DA-Z4, (S)-2,3-bis(1-hydroxy-1,3-dihydrobenzo[c][1,2]oxaborole-6-carboxamido)propanoic acid] |  | 
2 |  | fluoro-phenylboronic acid [FPBA] | not observed | fluorescence signal decreases
